Experimental data reported in patent US11390617B2, “Methods of treating non-Hodgkin lymphoma using 2-(2,6-dioxopiperidin-3-yl)-4-((2-fluoro-4-((3-morpholinoazetidin-1-yl)methyl)benzyl)amino)isoindoline-1,3-dione” (Celgene Corporation, priority 2019, dated 2022).

Columns and labels:
[1] = tested on: RL follicular lymphoma xenograft tumors; assay: RL (follicular lymphoma) xenograft model, monotherapy; format: in vivo, female SCID mice; conditions: 5 days on 2 days off for 3 weeks
Experimental: Anti-tumor activity of Compound 1 was evaluated as monotherapy (between 1 and 30 mg/kg, qd) in RL (follicular lymphoma) xenograft model.
Xenograft study was conducted with female SCID mice bearing RL follicular lymphoma xenograft tumors. Female SCID mice were inoculated subcutaneously with RL cells in the flank region above the right hind leg. Following inoculation of animals, the tumors were allowed to grow to approximately 200 mm^3 prior to randomization. On day 14 following tumor cell inoculation, the mice bearing RL tumors ranging between 150 and 250 mm^3 were pooled together and randomized into various treatment groups. Compound 1 was formulated in 0.5% Methyl Cellulose, 0.25% Tween 80 and 50 mM Citrate pH 3 in water. Compound 1 at 1, 3, 10 or 30 mg/kg was orally administered once daily with a 5 days on and 2 days off schedule for 3 weeks starting from day 14 after tumor cell inoculation. Tumors were measured twice a week using calipers and tumor volumes were calculated using the formula of W^2×L/2. Statistical analysis was performed using a one-way or 2-way analysis of variance (ANOVA). Synergy calculations were performed using fractional product method.

[2] = tested on: lymphoma cell lines WSU-DLCL2, SU-DHL6 and RL; assay: Macrophage mediated phagocytosis (ADCP) with rituximab; format: cell-based; conditions: macrophages treated with Compound 1 10 nM 48 hours, 3 hours
Experimental: Monocyte-derived macrophages (MDM) were generated by plating 8×10^6 commercial monocytes isolated from PBMC in RPMI media supplemented with 10% FBS, 1% L-glutamine and 60 ng/mL macrophage colony-stimulating factor (M-CSF) during 6 to 7 days. Then, MDM were treated with Compound 1 (10 nM) or DMSO control and cultured for an additional 48 hours prior to the assay. Lymphoma cell lines WSU-DLCL2, SU-DHL6 and RL were stained with CellTrace CFSE at 200 nM in PBS for 5 minutes at room temperature and added to the MDM cultures. At the time of co-culture, rituximab or isotype control were added to the media and cells were incubated at 37° C. during 3 hours. At the end of culture, cells were stained with anti-CD14 APC and images were acquired in Operetta. Phagocytosis index was calculated as cells positive for CFSE (green) and CD14 (red).

SU-DHL-4 cell line = assay: Cell proliferation and viability assay using SU-DHL-4 cell line (Cell Titer-Glo); format: cell-based; conditions: Homo sapiens, SU-DHL-4, 120 hours
Experimental: The following exemplary assay uses a DLBCL cell line, for example, the SU-DHL-4 cell line (Deutsche Sammlung von Mikroorganismen und Zellkulturen GmbH [DSMZ]: catalogue number ACC-495) at 120 hours post-treatment. The seeding density for SU-DHL-4 can be optimized to ensure assay linearity in 1536-well plates.
Increasing concentrations (0.5 nM to […]) of Compounds 1, 2, and 3 were each spotted in a 20-point dilution fashion (unevenly spaced data points) via an acoustic dispenser (EDC ATS-100) into an empty 1536-well plate. The DMSO concentration was kept constant for a final assay concentration of 0.1% DMSO. Prior to testing, SU-DHL-4 cells were grown in RPMI-1640 (Roswell Park Memorial Institute-1640) medium with 10% FBS (fetal bovine serum: HyClone) and expanded in culture flasks to provide sufficient amounts of starting material. Cells were then diluted to 500 cells per well in a 5 μL volume, and added directly to the compound-spotted 1536-well plates. Cells were allowed to grow for 120 hours in 5% CO2 at 37° C. At the time when exposure of cells to compound began (t0), initial viable cell number was assessed via Cell Titer-Glo® Luminescent Cell Viability Assay at a 1 vol: 2 vol ratio according to manufacturer's instructions (Promega Corporation, Madison, Wis.) by quantifying the level of luminescence generated by adenosine-5′-triphosphate (ATP) present in viable cells. After 120 hours, cell viability of the treated cells was assessed via Cell Titer-Glo© and read for luminescence. All growth inhibition curves were processed and evaluated using Activity Base (IDBS, Alameda, Calif.). Cell viability IC50 values were calculated using a four parameter logistic model (sigmoidal dose-response model): y=(A+((B−A)/(1+((C/x)^D)))) wherein: A=YMin B=YMax C=EC50 D=Hill slope IC50=the concentration of the compound when Y=50% of DMSO control Y=cell viability measured as luminescence unit, and x=concentration of compound.

[3] = 3, 10 and 30 mg/kg oral once daily

O=C1CC[C@H](N2C(=O)c3cccc(NCc4ccc(CN5CC(N6CCOCC6)C5)cc4F)c3C2=O)C(=O)N1 [Compound 1, (S)-2-(2,6-dioxopiperidin-3-yl)-4-((2-fluoro-4-((3-morpholinoazetidin-1-yl)methyl)benzyl)amino)isoindoline-1,3-dione]
inhibited RL follicular lymphoma tumor growth ([1]; 1 mg/kg oral once daily): −96.8%
tumor free animals [1, 3]: all the animals became tumor free
tumor growth [1, 3]: completely inhibited
phagocytosis of lymphoma cell lines mediated by macrophages (ADCP) [2]: enhances phagocytosis of lymphoma cell lines mediated by macrophages
IC50 (SU-DHL-4 cell line): < 200 nM
